Test results taken from ChEMBL document CHEMBL5649166, “RIP3 induces apoptosis independent of pronecrotic kinase activity” (Mol Cell, 2014).

Legend:
[1] = target: T1, Serine/threonine-protein kinase Nek11 (Homo sapiens) (UniProt Q8NG66); test: Inhibition of human NEK11 using myelin basic protein as substrate at 1 uM in presence of 32P-ATP by Hotspot assay relative to control; values are per cent of control
T1 sequence (whole entry): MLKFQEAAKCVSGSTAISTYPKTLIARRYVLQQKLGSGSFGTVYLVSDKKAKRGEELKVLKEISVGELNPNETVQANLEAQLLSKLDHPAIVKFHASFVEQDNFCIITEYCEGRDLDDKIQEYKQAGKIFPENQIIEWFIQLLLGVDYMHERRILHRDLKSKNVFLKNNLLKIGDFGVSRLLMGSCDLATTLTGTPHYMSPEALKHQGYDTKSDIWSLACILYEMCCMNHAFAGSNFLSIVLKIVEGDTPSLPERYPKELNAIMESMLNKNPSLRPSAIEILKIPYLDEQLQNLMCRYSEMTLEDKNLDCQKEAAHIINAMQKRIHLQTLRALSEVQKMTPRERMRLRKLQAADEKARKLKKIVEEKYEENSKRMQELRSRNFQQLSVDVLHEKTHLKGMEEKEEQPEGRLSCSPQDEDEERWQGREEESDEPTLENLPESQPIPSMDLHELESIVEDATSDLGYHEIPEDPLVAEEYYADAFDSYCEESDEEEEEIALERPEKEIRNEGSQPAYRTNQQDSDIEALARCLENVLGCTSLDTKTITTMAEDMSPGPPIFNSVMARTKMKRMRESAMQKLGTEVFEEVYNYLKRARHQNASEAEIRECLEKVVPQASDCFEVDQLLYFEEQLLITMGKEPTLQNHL

[2] = target: Calcium/calmodulin-dependent protein kinase type 1 (Homo sapiens) (UniProt Q14012); test: Inhibition of human CAMK1a using KKALRRQETVDAL as substrate at 1 uM in presence of 32P-ATP by Hotspot assay relative to control; values are per cent of control
Sequence of Calcium/calmodulin-dependent protein kinase type 1 (Homo sapiens) (Q14012 whole entry, looked up): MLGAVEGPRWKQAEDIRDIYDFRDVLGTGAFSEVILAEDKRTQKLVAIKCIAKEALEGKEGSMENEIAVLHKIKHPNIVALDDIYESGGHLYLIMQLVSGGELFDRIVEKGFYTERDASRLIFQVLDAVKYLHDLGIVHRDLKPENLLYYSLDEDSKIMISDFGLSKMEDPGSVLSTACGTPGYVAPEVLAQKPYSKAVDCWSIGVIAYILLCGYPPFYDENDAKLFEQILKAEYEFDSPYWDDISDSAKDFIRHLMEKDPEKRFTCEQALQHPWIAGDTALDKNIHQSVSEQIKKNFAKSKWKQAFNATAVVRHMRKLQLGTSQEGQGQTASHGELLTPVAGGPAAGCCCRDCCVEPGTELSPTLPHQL

[3] = target: Platelet-derived growth factor receptor alpha (Homo sapiens) (UniProt P16234); test: Inhibition of human PDGFRa using poly[Glu:Tyr] (4:1) as substrate at 1 uM in presence of 32P-ATP by Hotspot assay relative to control; values are per cent of control
Sequence of Platelet-derived growth factor receptor alpha (Homo sapiens) (P16234 whole entry): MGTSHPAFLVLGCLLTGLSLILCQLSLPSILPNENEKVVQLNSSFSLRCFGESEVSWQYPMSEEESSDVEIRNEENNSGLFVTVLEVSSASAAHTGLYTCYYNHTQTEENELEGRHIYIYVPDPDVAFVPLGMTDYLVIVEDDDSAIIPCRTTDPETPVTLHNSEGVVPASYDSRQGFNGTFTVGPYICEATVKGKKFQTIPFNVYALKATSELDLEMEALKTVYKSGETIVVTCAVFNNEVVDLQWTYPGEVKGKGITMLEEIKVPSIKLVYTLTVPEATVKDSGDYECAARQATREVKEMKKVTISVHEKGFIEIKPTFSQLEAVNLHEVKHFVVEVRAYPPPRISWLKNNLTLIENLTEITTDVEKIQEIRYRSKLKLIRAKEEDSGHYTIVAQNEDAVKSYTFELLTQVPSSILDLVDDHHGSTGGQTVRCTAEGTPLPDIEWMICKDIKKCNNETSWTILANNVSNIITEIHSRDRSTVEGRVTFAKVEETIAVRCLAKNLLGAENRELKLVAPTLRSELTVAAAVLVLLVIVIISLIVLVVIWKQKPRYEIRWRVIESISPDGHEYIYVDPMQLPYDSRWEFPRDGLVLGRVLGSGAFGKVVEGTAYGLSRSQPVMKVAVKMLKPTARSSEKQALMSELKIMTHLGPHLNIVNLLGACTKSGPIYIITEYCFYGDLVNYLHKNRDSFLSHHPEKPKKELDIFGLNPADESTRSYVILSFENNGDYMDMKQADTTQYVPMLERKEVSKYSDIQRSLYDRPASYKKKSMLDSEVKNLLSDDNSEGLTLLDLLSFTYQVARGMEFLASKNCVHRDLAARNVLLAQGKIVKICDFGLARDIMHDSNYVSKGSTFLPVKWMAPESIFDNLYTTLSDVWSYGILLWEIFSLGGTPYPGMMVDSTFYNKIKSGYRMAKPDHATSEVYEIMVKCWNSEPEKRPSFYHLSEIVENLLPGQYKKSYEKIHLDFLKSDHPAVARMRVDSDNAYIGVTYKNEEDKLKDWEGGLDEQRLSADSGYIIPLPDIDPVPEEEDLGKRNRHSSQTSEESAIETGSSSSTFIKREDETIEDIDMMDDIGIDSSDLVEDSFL

[4] = target: Fibroblast growth factor receptor 4 (Homo sapiens) (UniProt P22455); test: Inhibition of human FGFR4 using poly[Glu:Tyr] (4:1) as substrate at 1 uM in presence of 32P-ATP by Hotspot assay relative to control; values are per cent of control
Sequence of Fibroblast growth factor receptor 4 (Homo sapiens) (P22455 22-802 limits assumed): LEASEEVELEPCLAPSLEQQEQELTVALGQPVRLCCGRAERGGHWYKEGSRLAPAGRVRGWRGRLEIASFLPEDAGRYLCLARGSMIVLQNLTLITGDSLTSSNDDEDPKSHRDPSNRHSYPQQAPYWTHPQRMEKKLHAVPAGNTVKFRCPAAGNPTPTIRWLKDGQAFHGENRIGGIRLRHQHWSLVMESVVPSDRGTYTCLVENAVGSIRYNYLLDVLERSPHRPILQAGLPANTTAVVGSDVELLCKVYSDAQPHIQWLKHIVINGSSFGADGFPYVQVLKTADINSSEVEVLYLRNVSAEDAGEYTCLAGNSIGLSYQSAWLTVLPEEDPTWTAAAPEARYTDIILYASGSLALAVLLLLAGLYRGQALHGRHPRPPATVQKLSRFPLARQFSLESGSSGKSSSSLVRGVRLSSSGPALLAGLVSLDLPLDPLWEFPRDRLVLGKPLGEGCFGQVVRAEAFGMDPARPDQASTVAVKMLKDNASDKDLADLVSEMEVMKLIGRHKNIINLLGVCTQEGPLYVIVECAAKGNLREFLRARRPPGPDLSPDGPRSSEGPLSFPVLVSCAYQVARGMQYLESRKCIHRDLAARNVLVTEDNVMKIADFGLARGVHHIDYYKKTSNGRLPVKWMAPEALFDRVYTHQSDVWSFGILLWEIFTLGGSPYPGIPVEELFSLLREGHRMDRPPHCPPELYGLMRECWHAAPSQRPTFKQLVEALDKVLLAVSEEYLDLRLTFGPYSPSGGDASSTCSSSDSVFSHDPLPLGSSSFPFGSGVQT

[5] = target: T2, Tyrosine-protein kinase ZAP-70 (Homo sapiens) (UniProt P43403); test: Inhibition of human ZAP70 using poly[Glu:Tyr] (4:1) as substrate at 1 uM in presence of 32P-ATP by Hotspot assay relative to control; values are per cent of control
T2 sequence (whole entry): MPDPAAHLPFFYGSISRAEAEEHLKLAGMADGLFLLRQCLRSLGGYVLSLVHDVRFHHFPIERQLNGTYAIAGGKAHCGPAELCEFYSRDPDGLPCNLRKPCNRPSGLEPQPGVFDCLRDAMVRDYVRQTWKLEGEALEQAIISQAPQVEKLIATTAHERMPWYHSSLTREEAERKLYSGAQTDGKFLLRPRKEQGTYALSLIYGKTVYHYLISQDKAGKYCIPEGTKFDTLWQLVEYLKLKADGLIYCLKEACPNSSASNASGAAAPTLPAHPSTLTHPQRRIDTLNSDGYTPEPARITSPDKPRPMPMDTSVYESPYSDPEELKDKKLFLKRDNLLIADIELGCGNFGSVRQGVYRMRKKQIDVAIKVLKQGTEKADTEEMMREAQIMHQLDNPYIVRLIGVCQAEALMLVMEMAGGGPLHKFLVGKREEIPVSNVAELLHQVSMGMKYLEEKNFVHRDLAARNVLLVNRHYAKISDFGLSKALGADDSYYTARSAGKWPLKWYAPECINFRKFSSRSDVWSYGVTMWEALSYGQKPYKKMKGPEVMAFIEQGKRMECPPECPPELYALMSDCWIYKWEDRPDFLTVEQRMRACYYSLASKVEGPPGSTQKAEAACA

[6] = target: Cyclin-dependent kinase 1/cyclin B1 (Homo sapiens) (UniProt P06493+P14635); test: Inhibition of human CDK1/cyclin B using RB Protein as substrate at 1 uM in presence of 32P-ATP by Hotspot assay relative to control; values are per cent of control
Sequence of Cyclin-dependent kinase 1/cyclin B1 (Homo sapiens) (P06493 whole entry, looked up): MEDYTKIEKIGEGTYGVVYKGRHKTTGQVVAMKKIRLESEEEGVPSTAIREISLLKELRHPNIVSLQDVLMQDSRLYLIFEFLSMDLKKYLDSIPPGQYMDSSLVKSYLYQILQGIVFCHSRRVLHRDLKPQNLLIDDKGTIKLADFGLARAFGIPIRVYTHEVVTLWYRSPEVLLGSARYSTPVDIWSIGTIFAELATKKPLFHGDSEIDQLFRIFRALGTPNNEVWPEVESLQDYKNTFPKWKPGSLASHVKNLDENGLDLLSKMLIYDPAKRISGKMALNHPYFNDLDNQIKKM
Sequence of Cyclin-dependent kinase 1/cyclin B1 (Homo sapiens) (P14635 whole entry, looked up): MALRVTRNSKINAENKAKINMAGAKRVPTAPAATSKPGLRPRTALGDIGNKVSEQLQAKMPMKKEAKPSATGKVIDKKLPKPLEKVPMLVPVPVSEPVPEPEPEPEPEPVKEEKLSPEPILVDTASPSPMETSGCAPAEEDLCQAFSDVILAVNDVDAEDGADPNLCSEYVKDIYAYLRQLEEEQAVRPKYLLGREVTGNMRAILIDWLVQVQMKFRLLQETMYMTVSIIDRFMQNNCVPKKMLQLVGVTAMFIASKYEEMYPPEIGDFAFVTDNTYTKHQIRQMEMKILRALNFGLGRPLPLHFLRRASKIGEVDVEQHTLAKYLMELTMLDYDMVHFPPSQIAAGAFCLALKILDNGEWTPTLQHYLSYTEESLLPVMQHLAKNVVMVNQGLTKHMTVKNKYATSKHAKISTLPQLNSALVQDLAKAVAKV

[7] = target: T3, TGF-beta receptor type-1 (Homo sapiens) (UniProt P36897); test: Inhibition of human ALK5/TGFBR1 using casein as substrate at 1 uM in presence of 32P-ATP by Hotspot assay relative to control; values are per cent of control
T3 sequence (whole entry): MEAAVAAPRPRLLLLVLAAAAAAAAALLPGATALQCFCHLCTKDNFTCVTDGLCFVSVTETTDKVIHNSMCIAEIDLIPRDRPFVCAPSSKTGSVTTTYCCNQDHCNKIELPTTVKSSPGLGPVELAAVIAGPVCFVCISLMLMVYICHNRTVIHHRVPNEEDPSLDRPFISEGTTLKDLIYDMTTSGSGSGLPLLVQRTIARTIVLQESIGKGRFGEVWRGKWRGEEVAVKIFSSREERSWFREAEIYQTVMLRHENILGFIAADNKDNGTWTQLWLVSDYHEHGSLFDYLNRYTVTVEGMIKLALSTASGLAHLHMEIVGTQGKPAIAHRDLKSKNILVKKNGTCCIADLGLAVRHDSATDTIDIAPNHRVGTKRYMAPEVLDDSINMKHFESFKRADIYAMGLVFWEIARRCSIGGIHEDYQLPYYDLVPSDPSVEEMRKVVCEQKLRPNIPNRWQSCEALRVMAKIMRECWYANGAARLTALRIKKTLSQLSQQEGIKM

Compound	residual activity [1]	residual activity [2]	residual activity [3]	residual activity [4]	residual activity [5]	residual activity [6]	residual activity [7]
CC(C)S(=O)(=O)c1ccc2nccc(Nc3ccc4scnc4c3)c2c1	89.5%	92.1%	74.6%	77.6%	102%	101%	101%
Cc1cc(-c2cnc(N)c3c(-c4ccc5scnc5c4)csc23)n(C)n1	97.3%	97.4%	9.84%	47.4%	89.8%	95%	97.8%
CNC(=O)c1ccc2c(c1)ncn2-c1ccc(CC(=O)OC(C)(C)C)cc1	102%	95%	32.7%	93.4%	102%	98.9%	94.9%
